Measurements published in patent publication US7875621B2, “Substituted 2-alkyl quinazolinone derivatives as PARP inhibitors” (Janssen Pharmaceutica NV, priority 2004, dated 2011).

Biological target: T1, TANK-2 enzyme (Homo sapiens, UniProt Q9H2K2)
T1 construct: inferred from capture on Ni-coated flash plate; made in house
T1 sequence (Q9H2K2 1-1166): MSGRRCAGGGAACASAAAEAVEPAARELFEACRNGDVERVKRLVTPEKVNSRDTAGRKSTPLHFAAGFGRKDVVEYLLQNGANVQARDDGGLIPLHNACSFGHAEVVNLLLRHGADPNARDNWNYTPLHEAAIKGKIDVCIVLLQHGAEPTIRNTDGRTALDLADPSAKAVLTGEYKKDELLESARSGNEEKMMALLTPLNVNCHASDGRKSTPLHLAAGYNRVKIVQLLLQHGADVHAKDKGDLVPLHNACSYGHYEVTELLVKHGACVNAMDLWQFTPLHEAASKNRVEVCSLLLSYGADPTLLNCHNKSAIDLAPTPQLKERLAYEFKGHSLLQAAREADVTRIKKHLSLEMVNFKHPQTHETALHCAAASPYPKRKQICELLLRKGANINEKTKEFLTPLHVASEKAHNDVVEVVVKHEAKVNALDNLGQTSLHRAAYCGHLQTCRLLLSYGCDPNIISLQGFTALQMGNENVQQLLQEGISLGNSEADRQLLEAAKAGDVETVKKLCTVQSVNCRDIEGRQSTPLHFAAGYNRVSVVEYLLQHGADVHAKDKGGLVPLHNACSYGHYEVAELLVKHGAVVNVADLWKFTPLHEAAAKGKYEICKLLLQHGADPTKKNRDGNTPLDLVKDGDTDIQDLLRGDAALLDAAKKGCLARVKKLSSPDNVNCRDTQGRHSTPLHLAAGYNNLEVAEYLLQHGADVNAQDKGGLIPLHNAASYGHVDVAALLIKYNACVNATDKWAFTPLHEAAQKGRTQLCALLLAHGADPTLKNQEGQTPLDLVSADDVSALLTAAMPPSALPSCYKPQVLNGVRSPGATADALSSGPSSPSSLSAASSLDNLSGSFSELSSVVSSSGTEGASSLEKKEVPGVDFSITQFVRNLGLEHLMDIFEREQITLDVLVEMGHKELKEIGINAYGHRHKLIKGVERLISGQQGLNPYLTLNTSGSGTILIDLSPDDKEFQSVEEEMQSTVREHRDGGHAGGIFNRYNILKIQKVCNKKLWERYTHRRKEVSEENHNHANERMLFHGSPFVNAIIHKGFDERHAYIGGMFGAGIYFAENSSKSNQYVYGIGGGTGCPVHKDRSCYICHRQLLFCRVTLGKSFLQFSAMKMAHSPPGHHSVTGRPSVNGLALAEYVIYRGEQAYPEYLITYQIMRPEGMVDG
Assay: In vitro scintillation proximity assay (SPA) for TANK-2 inhibitory activity
Assay type: biochemical
Settings: not given
Method: In Vitro Scintillation Proximity Assay (SPA) for TANK-2 Inhibitory Activity
Compounds of the present invention were tested in an in vitro assay based on SPA technology with Ni Flash plates (96 or 384 well).
In principle, the assay relies upon SPA technology for the detection of auto-poly(ADP-ribosyl)ation of TANK-2 protein using [^3H]-nicotinamide adenine dinucleotide ([^3H]-NAD^+) as ADP-ribosyl donor.
A stock solution of [^3H]-NAD^+/NAD was made by adding 64.6 μl of [^3H]-NAD^+ (0.1 mCi/ml, supplier: Perkin Elmer) and 46.7 μl NAD-stock (10.7 mM, stored at −20° C., supplier Roche) to 1888.7 μl assay buffer (60 mM Tris/HCl, pH 7.4; 0.9 mM DTT; 6 mM MgCl2). The TANK-2 enzyme was produced as described in EP1238063. 60 μl of assay buffer, together with 1 μl of compound in DMSO, 20 μl of [^3H]-NAD^+/NAD and 20 μl of TANK-2 enzyme (final concentration 6 μg/ml) was added per well into a 96-well Ni-coated flash plate (Perkin Elmer). After incubation of the mixture for 120 min. at room temperature, the reaction was terminated by adding 60 μl of stopsolution (42.6 mg NAD in 6 ml H2O). The plates were covered with a plate sealer and placed in a TopCountNXT™ (Packard) for scintillation counting. Values were expressed as counts per minute (cpm). For each experiment, controls (containing TANK-2 enzyme and DMSO without compound), a blank incubation (containing DMSO but no TANK-2 enzyme or compound) and samples (containing TANK-2 enzyme and compound dissolved in DMSO) were run in parallel. All compounds tested were dissolved and eventually further diluted in DMSO. In first instance, compounds were tested at a concentration of 10^−5M. […] In each test, the blank value was subtracted from both the control and the sample values. The control sample represented maximal TANK-2 enzyme activity. For each sample, the amount of cpm was expressed as a percentage of the mean cpm value of the controls. When appropriate, IC50-values (concentration of the drug, needed to reduce the TANK-2 enzyme activity to 50% of the control) were computed using linear interpolation between the experimental points just above and below the 50% level. Herein the effects of test compounds are expressed as pIC50 (the negative log value of the IC50-value). As reference compounds, 3-aminobenzamide and 4-amino-1,8-naphtalimide were included to validate the SPA assay. Herein the assay was described using 96-well plates. In the assay using 384-well plates the same final concentrations were used and volumes were adapted.

Compound	IC50 [µM]
O=C1NC(CCN2CCC(n3c(=O)[nH]c4ccccc43)CC2)Nc2ccccc21 (stereo not drawn) [Compound 13]	0.938

Same assay, conditions: auto-poly(ADP-ribosyl)ation, [3H]-NAD+, 96- or 384-well Ni Flash plates; read-out: in vitro SPA TANK-2 pIC50 (converted)

IC50 [µM]	Compound
> 10	O=C(NC1CCN(CCCc2nc3ccccc3c(=O)[nH]2)CC1)c1ccccc1 [Compound 12]
2.48	O=C(CC1CCN(CCc2nc3ccccc3c(=O)[nH]2)CC1)c1ccc(F)cc1 [Compound 3]
> 10	O=C(c1ccc(F)cc1)C1CCN(CCc2nc3ccccc3c(=O)[nH]2)CC1 [Compound 9]
> 10	O=C(c1ccc(F)cc1)C1CCN(CCCc2nc3ccccc3c(=O)[nH]2)CC1 [Compound 14]
> 10	NC(=O)C1(N2CCOCC2)CCN(CCCc2nc3ccccc3c(=O)[nH]2)CC1 [Compound 11]
< 10	O=C1NC(CCCN2CCC(n3c(=O)[nH]c4ccccc43)CC2)Nc2ccccc21 (stereo not drawn) [Compound 7]
> 10	O=C(NC1CCN(CCCC2NC(=O)c3ccccc3N2)CC1)c1ccccc1 (stereo not drawn) [Compound 8]

Compound	IC50 [µM]
NC(=O)C1(c2ccccc2)CCN(CCCC2NC(=O)c3ccccc3N2)CC1 (stereo not drawn) [Compound 5]	> 10
O=C1NCN(c2ccccc2)C12CCN(CCCc1nc3ccccc3c(=O)[nH]1)CC2 [Compound 2]	> 10
NC(=O)C1(c2ccccc2)CCN(CCCc2nc3ccccc3c(=O)[nH]2)CC1 [Compound 4]	> 10
O=C1NC(CCN2CCC3(CC2)C(=O)NCN3c2ccccc2)Nc2ccccc21 (stereo not drawn) [Compound 6]	7.43
